Results from patent US20160360749A1, “METHOD FOR […] […]” (ExxonMobil Research and Engineering Company, priority 2015, published 2016).

Columns and labels:
[1] = test system: Desulfovibrio vulgaris Hildenborough (DvH); assay: DvH metabolism by ion chromatography (lactate, sulfate, acetate); format: cell-based; conditions: 0.5-2 mM indole, FIG. 2B, 2 replicates
Description: (§1) Steel coupons were incubated in cultures of DvH for three days with and without indole and then the coupons were measured to determine the amount of metal loss due to corrosion. […] The error bars represent the standard error of the mean from 2 replicates.
The wild-type D. vulgaris Hildenborough (DvH) was obtained from Judy Wall at the University of Missouri and Adam Deutchbauer at the Lawrence Berkeley National Laboratory. Freezer stocks of DvH containing 10% glycerol were used to inoculate overnight cultures. The growth media (L30S30B2) contained 30 mM lactate, 30 mM sulfate, 8 mM MgCl2, 20 mM NH4Cl, 2.2 mM phosphate buffer, 0.6 mM CaCl2, 24 mM NaCO3, 0.02% resazurin, 0.06 mM FeCl2, trace elements and Thauer's vitamins (Lee et al., “Indole as an intercellular signal in microbial communities,” 2010, pp. 426-444) with pH adjusted to 7.2. […]
Ion Chromatography (IC)—One milliliter of cultures were extracted at the beginning and the end of the experiment, centrifuged at 14000 rpm for 2 min, filtered through 0.2 μm cellulose acetate filters, and kept at −20° C. until further IC analysis. Anions of lactate, sulfate, and acetate were quantified using suppressed conductivity on a Dionex ICS-5000 Reagent-Free HPIC System with a Dionex IonPac AS 11-HC column (0.4 mm×250 mm, Thermo Fisher, Massachusetts, USA). […]

[2] = test system: Desulfovibrio vulgaris Hildenborough (DvH); assay: Carbon steel coupon weight loss analysis in DvH cultures; format: cell-based
Description: (§2) Carbon steel coupons were incubated in the presence of 0 and 2 mM indole, with and without an inoculum of DvH.
(§3) The metal loss of the carbon steel coupons was measured. FIG. 1 is a bar graph comparing corrosion as measured in coupon weight loss under the compound (indole) and SRB (DvH) tested.
as §1
The wild-type D. vulgaris Hildenborough (DvH) was obtained from Judy Wall at the University of Missouri and Adam Deutchbauer at the Lawrence Berkeley National Laboratory. Freezer stocks of DvH containing 10% glycerol were used to inoculate overnight cultures. The growth media (L30S30B2) contained 30 mM lactate, 30 mM sulfate, 8 mM MgCl2, 20 mM NH4Cl, 2.2 mM phosphate buffer, 0.6 mM CaCl2, 24 mM NaCO3, 0.02% resazurin, 0.06 mM FeCl2, trace elements and Thauer's vitamins (Lee et al., “Indole as an intercellular signal in microbial communities,” 2010, pp. 426-444) with pH adjusted to 7.2. Media was bubbled with 15% CO2 balance N2 and sodium dithionite was added immediately before inoculation to a final concentration of […]. Media containing 0-4 mM indole was made by anaerobically mixing varied volumes of L30S30B2 and L30S30B2 supplemented with 4 mM indole (Sigma-Aldrich, 13408).
(§4) Rectangular X52 carbon steel coupons were polished on 600 grit sand paper and weighed prior to the experiment. 60 ml of L30S30B2 media containing 0-2 mM indole was anaerobically transferred into each autoclaved serum bottle with 1 coupon hung on plastic fishing wire. 1 ml of a DvH overnight culture was inoculated into each bottle and incubated at 30° C. with gentle shaking for 3 days. After the incubation the coupons were descaled with Clarke's solution (tin choloride and antimony oxide in concentrated hydrochloric acid), rinsed with water, dried under nitrogen gas, and weighed again. The metal weight loss after exposure to DvH was then calculated.

[3] = Carbon steel coupon weight loss in a sterile environment without DvH inoculation; conditions: 2 mM indole, carbon steel coupons, FIG. 1
Description: as §2, §3, §4

c1ccc2[nH]ccc2c1 [indole]
metabolism of DvH (consumption of lactate and sulfate, production of acetate) [1]: not significantly affected | reduction of corrosion (coupon weight loss) compared to the no indole treatment ([2]; 2 mM indole, carbon steel coupons, in the presence of DvH (MIC), FIG. 1): 2 fold | metal loss of coupons incubated in the absence of indole relative to coupons in the presence of indole ([2]; 0.5-2 mM indole, steel coupons in DvH cultures, three days, FIG. 2A): ~2 fold | corrosion of metal coupons ([2]; 0.5 to 2 mM indole, DvH cultures, three days): little to no corrosion | reduction in coupon weight loss in sterile environment [3]: not replicated
